Data as given in PMC2974784 (Pharmacological research : the official journal of the …, 2010).
Counter-ions that a name gives are not always drawn. Like-named read-outs stand apart in the source and are kept apart here. Each block holds one compound with its values, some of them ahead of it.

What was measured:
Format in all cases: cell-based
[1] = biological target: T1, P2Y1 receptor (Rattus norvegicus, UniProt P49651); experiment: agonist-induced intracellular calcium mobilization in RBL-2H3 cells
T1 sequence (P49651 whole entry): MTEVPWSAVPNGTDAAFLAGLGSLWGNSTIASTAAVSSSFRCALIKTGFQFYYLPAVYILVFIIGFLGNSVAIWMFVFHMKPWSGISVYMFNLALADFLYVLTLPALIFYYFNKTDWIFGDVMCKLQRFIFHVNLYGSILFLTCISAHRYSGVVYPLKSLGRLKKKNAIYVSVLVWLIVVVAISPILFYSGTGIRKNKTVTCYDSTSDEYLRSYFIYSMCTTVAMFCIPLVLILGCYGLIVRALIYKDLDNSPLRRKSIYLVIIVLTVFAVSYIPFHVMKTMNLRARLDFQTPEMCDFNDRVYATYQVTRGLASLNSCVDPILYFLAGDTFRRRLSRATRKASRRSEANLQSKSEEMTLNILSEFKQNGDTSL

[2] = biological target: T1, P2Y1 receptor
[3] = biological target: T2, P2Y13 receptor (Rattus norvegicus, UniProt Q6GUG4)
T2 sequence (Q6GUG4 1-336): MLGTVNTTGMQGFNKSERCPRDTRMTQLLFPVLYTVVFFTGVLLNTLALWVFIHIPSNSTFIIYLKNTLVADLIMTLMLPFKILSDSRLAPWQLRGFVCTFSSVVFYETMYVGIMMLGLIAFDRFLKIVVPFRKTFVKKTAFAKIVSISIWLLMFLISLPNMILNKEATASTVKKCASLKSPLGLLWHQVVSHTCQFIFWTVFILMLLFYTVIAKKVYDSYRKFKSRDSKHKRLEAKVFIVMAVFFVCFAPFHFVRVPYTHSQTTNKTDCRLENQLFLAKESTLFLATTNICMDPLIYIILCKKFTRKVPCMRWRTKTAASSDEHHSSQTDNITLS

[4] = biological target: T1, P2Y1 receptor; remark: listed apart in the source

EC50 [1]: 0.0378 ± 0.0113 µM
SMILES: CSc1nc(N)c2ncn([C@@H]3O[C@H](COP(=O)(O)OP(=O)(O)O)[C@@H](O)[C@H]3O)c2n1 [2-MeSADP]

SMILES: Nc1ncnc2c1ncn2[C@@H]1O[C@H](COP(=O)(O)OP(=O)(O)O)[C@@H](O)[C@H]1O [ADP]
EC50 [2]: 0.278 ± 0.042 µM
EC50 [3]: 4.7 ± 0.8 µM

EC50 [4]: 0.0045 ± 0.0008 µM
SMILES: CSc1nc(N)c2ncn([C@H]3[C@H](O)[C@H](O)[C@]4(COP(=O)(O)OP(=O)(O)O)C[C@H]34)c2n1 [MRS2365, [[(1R,2R,3S,4R,5S)-4-[6-amino-2-(methylthio)-9H-purin-9-yl]-2,3-dihydroxybicyclo[3.1.0]hex-1-yl]methyl]diphosphoric acid mono ester trisodium salt]
